Measured values reported in patent US12661345B2, “Compositions for the treatment of hypertension” (The George Institute for Global Health, priority 2017, dated 2026).

Test system: participants with migraine
Assay: Office blood pressure in 12-week double blind randomized 3×3 factorial trial
Format: in vivo, human
Details: for Diastolic Blood Pressure Mean difference / Systolic Blood Pressure Mean difference / Diastolic Blood Pressure, Change from Baseline, Mean difference / Systolic Blood Pressure, Change from Baseline, Mean difference: interval in brackets
Description: There was a 4 week screening period and another 4-week post study drug observational period.
There was a 4-week screening period and another 4-week post study drug observational period.
Group 2 received the low-dose BP lowering combination and simvastatin (i.e., telmisartan 20 mg+amlodipine 2.5 mg+simvastatin). Group 3 received the low-dose BP lowering combination and placebo (i.e., telmisartan 20 mg+amlodipine 2.5 mg+placebo). […] Group 9 received double placebo.
Office BP was measured following the recommendations of the Australian National Heart Foundation. Participants were rested in the seated position for 5 minutes, an appropriate cuff size was selected and 3 measurements of BP were recorded using an Omron HEM907 monitor or equivalent validated automated digital BP monitor. Principles of automated office BP measurements were applied whereby the patient was left alone during BP recording.
All analyses of study outcomes were conducted according to the principle of intention-to-treat. The analyses of continuous outcomes such SBP and LDL-cholesterol at 12 weeks was performed using ANCOVA including the treatment arm and baseline values as a covariate. Additional analyses included interim measurements in a longitudinal model including treatment arm, visit, and treatment by visit interaction as well as the baseline measurement. Within-patient correlations were modelled using generalized estimating equations. A similar approach was applied to binary endpoints with log-binomial regression used in place of linear regression. There were also pre-defined subgroup analyses, baseline BP, baseline LDL, gender and age.

[1] = Randomization (baseline, before treatment)
[2] = Randomization, BP arm versus placebo

CC(C)NCC(O)COc1cccc2ccccc12 (centres unmarked) [Propranolol, propranolol]
Diastolic Blood Pressure Mean (SD) [1]: 10 85.1 (12.48) mmHg
Diastolic Blood Pressure Q1 [1]: 75.7 mmHg
Diastolic Blood Pressure Q2 [1]: 77.7 mmHg
Diastolic Blood Pressure Q3 [1]: 95.7 mmHg
Diastolic Blood Pressure min [1]: 73 mmHg
Systolic Blood Pressure Mean (SD) [1]: 10 130.4 (16.09) mmHg
Systolic Blood Pressure Q1 [1]: 116.7 mmHg
Systolic Blood Pressure Q2 [1]: 129.3 mmHg
Systolic Blood Pressure Q3 [1]: 146.3 mmHg
Systolic Blood Pressure max [1]: 153 mmHg
Diastolic Blood Pressure Mean difference [2]: 3.67 (−4.68, 12.02) mmHg
Systolic Blood Pressure Mean difference [2]: 6.52 (−4.86, 17.91) mmHg
Diastolic Blood Pressure Mean (SD) (Week 4): 10 75.5 (9.75) mmHg
Diastolic Blood Pressure Q1 (Week 4): 69.0 mmHg
Diastolic Blood Pressure Q2 (Week 4): 73.3 mmHg
Diastolic Blood Pressure Q3 (Week 4): 83.3 mmHg
Diastolic Blood Pressure max (Week 4): 89 mmHg
Diastolic Blood Pressure min (Week 4): 62 mmHg
Diastolic Blood Pressure, Change from Baseline, Mean (SD) (Week 4): 10 −9.6 (5.66)
Diastolic Blood Pressure, Change from Baseline, Q1 (Week 4): −13.0
Diastolic Blood Pressure, Change from Baseline, Q2 (Week 4): −10.3
Diastolic Blood Pressure, Change from Baseline, Q3 (Week 4): −4.3
Diastolic Blood Pressure, Change from Baseline, max (Week 4): −1
Diastolic Blood Pressure, Change from Baseline, min (Week 4): −19
Systolic Blood Pressure Mean (SD) (Week 4): 10 121.3 (14.92) mmHg
Systolic Blood Pressure Q1 (Week 4): 108.7 mmHg
Systolic Blood Pressure Q2 (Week 4): 116.8 mmHg
Systolic Blood Pressure Q3 (Week 4): 135.3 mmHg
Systolic Blood Pressure max (Week 4): 146 mmHg
Systolic Blood Pressure, Change from Baseline, Mean (SD) (Week 4): 10 −9.1 (5.63)
Systolic Blood Pressure, Change from Baseline, Q1 (Week 4): −13.3
Systolic Blood Pressure, Change from Baseline, Q2 (Week 4): −8.5
Systolic Blood Pressure, Change from Baseline, Q3 (Week 4): −5.0
Systolic Blood Pressure, Change from Baseline, max (Week 4): −1
Systolic Blood Pressure, Change from Baseline, min (Week 4): −18
Diastolic Blood Pressure Mean difference (Week 4, BP arm versus placebo): −3.53 (−11.29, 4.22) mmHg
Systolic Blood Pressure Mean difference (Week 4, BP arm versus placebo): −2.60 (−14.65, 9.45) mmHg
Diastolic Blood Pressure, Change from Baseline, Mean difference (Week 4): −7.53 (−13.19, −1.88)
Systolic Blood Pressure, Change from Baseline, Mean difference (Week 4): −9.23 (−17.31, −1.16)
Diastolic Blood Pressure Mean (SD) (Week 8): 10 75.0 (8.82) mmHg
Diastolic Blood Pressure Q1 (Week 8): 66.3 mmHg
Diastolic Blood Pressure Q2 (Week 8): 76.5 mmHg
Diastolic Blood Pressure Q3 (Week 8): 83.3 mmHg
Diastolic Blood Pressure max (Week 8): 85 mmHg
Diastolic Blood Pressure min (Week 8): 61 mmHg
Diastolic Blood Pressure, Change from Baseline, Mean (SD) (Week 8): 10 −10.1 (6.39)
Diastolic Blood Pressure, Change from Baseline, Q1 (Week 8): −12.7
Diastolic Blood Pressure, Change from Baseline, Q2 (Week 8): −10.8
Diastolic Blood Pressure, Change from Baseline, Q3 (Week 8): −7.0
Diastolic Blood Pressure, Change from Baseline, max (Week 8): 0
Diastolic Blood Pressure, Change from Baseline, min (Week 8): −22
Systolic Blood Pressure Mean (SD) (Week 8): 10 118.6 (12.56) mmHg
Systolic Blood Pressure Q1 (Week 8): 112.3 mmHg
Systolic Blood Pressure Q2 (Week 8): 119.5 mmHg
Systolic Blood Pressure Q3 (Week 8): 127.0 mmHg
Systolic Blood Pressure max (Week 8): 135 mmHg
Systolic Blood Pressure min (Week 8): 95 mmHg
Systolic Blood Pressure, Change from Baseline, Mean (SD) (Week 8): 10 −11.8 (11.44)
Systolic Blood Pressure, Change from Baseline, Q1 (Week 8): −18.0
Systolic Blood Pressure, Change from Baseline, Q2 (Week 8): −11.8
Systolic Blood Pressure, Change from Baseline, Q3 (Week 8): −4.3
Systolic Blood Pressure, Change from Baseline, max (Week 8): 6
Systolic Blood Pressure, Change from Baseline, min (Week 8): −30
Diastolic Blood Pressure Mean difference (Week 8, BP arm versus placebo): −3.67 (−10.23, 2.90) mmHg
Diastolic Blood Pressure, Change from Baseline, Mean difference (Week 8): −7.67 (−12.92, −2.41)
Systolic Blood Pressure, Change from Baseline, Mean difference (Week 8): −7.30 (−17.13, 2.53)
Diastolic Blood Pressure, Change from Baseline, Mean (SD) (Week 12): 10 −10.5 (6.44)
Diastolic Blood Pressure, Change from Baseline, Q1 (Week 12): −16.7
Diastolic Blood Pressure, Change from Baseline, Q2 (Week 12): −9.3
Diastolic Blood Pressure, Change from Baseline, Q3 (Week 12): −4.3
Diastolic Blood Pressure, Change from Baseline, max (Week 12): −3
